Data set [1] deals with HIV-IIIb. Description: Test A: Antiviral assay in MT4 cells. The class given is cell-based, HIV-1. The following applies: Human immunodeficiency virus 1, IIIB, MT4, 120 h, read-out: % inhibition at 2 μM, percent inhibition of virus-induced cell killing, from dose response curve at 2 uM drug; MT-4 cells infected with HIV-IIIb, 5 days, CellTiter-Glo. On the technique in general: ATP-based viability assays read luminescence as a measure of living cells.

The nature of data set [2]: in vitro. Particulars: human, uninfected MT-4 cells, CC50 (nM), same protocol as Test A, CellTiter-Glo. The essentials:
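Cytoprotection read-out: CellTiter-Glo chemiluminescence after 5 days at 37 °C of HIV-IIIb-infected MT-4 cells (m.o.i. 0.003) with compound in 10-point 3-fold dilutions, quadruplicate, 10% FBS. Cytotoxicity (CC50) measured identically without virus.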

Some results are limits rather than exact numbers.

Take `Cc1cc2cc(F)ccc2n1CC(=O)N[C@@H](Cc1cc(F)cc(F)c1)c1ncccc1-c1cccc(C(N)=O)c1` [Example 575B, (S)-3-(2-(2-(3,5-difluorophenyl)-1-(2-(5-fluoro-2-methyl-1H-indol-1-yl)acetamido)ethyl)pyridin-3-yl)benzamide]: the inhibition (commonly the share of the control response that was lost under treatment) at 2 µM in data set [1] was found to be 14%. Moreover, the midpoint of cytotoxicity in data set [2], the CC50 at 5 days, lay at 17400 nM.
On to `NC(=O)c1cc(-c2cccnc2[C@H](Cc2cc(F)cc(F)c2)NC(=O)Cn2ccc3ccc4ccccc4c32)ccc1F` [Example 56B, (S)-5-(2-(1-(2-(1H-benzo[g]indol-1-yl)acetamido)-2-(3,5-difluorophenyl)ethyl)pyridin-3-yl)-2-fluorobenzamide], for which, in data set [1], the inhibition at 2 µM came to 4%. In data set [2], the CC50 (in general, the concentration that lowers cell viability or growth by half) at 5 days turned out to be 18900 nM.
Consider `NC(=O)c1cc(-c2cccnc2[C@H](Cc2cc(F)cc(F)c2)NC(=O)Cn2nc(C(F)F)c3c2C(F)(F)CCC3=O)ccc1F` [Example 285G, (S)-5-(2-(1-(2-(3-(difluoromethyl)-7,7-difluoro-4-oxo-4,5,6,7-tetrahydro-1H-indazol-1-yl)acetamido)-2-(3,5-difluorophenyl)ethyl)pyridin-3-yl)-2-fluorobenzamide], for which the inhibition at 2 µM in data set [1] amounted to 58%. Further, the 50% cytotoxic concentration (CC50) at 5 days in data set [2] is 48500 nM.
In the same order, the values of `NC(=O)c1cc(-c2cccnc2[C@H](Cc2cc(F)cc(F)c2)NC(=O)Cc2cccc3ccccc23)ccc1F` [Example 214, (S)-5-(2-(2-(3,5-difluorophenyl)-1-(2-(naphthalen-1-yl)acetamido)ethyl)pyridin-3-yl)-2-fluorobenzamide] are 8% and 22200 nM.
As to `CC1(C)OB(c2cn(CC(=O)N[C@@H](Cc3cc(F)cc(F)c3)c3ncccc3-c3ccc(F)c(C(N)=O)c3)nc2C(F)(F)F)OC1(C)C` [Example 451B, (S)-5-(2-(2-(3,5-difluorophenyl)-1-(2-(4-(4,4,5,5-tetramethyl-1,3,2-dioxaborolan-2-yl)-3-(trifluoromethyl)-1H-pyrazol-1-yl)acetamido)ethyl)pyridin-3-yl)-2-fluorobenzamide], the inhibition at 2 µM in data set [1] turned out to be 1%. This compound came in with a CC50 at 5 days in data set [2] of 37100 nM.
On to `CN(C)C(=O)c1ccc(-c2cccnc2[C@H](Cc2cc(F)cc(F)c2)NC(=O)Cc2c[nH]c3ccc(O)cc23)cc1` [Example 47, (S)-4-(2-(2-(3,5-difluorophenyl)-1-(2-(5-hydroxy-1H-indol-3-yl)acetamido)ethyl)pyridin-3-yl)-N,N-dimethylbenzamide], for which the inhibition at 2 µM in data set [1] was 59%. In data set [2], this compound yielded a CC50 at 5 days of more than 53000 nM.
`NC(=O)c1cc(-c2cccnc2[C@H](Cc2cc(F)cc(F)c2)NC(=O)Cn2nc(C(F)(F)F)c3cc(F)ccc32)ccc1F` [Example 271B, (S)-5-(2-(2-(3,5-difluorophenyl)-1-(2-(5-fluoro-3-(trifluoromethyl)-1H-indazol-1-yl)acetamido)ethyl)pyridin-3-yl)-2-fluorobenzamide]: in data set [1], the inhibition at 2 µM stood at 15%. Besides, in data set [2], the cytotoxic concentration (CC50) at 5 days was 11400 nM.
As to `CC(=O)Nc1ccc(-c2cccnc2[C@H](Cc2cc(F)cc(F)c2)NC(=O)Cc2c[nH]c3ccc(F)cc23)cc1` [Example 394], in data set [1], the inhibition at 2 µM was 14%. In data set [2], the CC50 at 5 days worked out at 30800 nM.
For the compound `NC(=O)c1cc(-c2cccnc2[C@H](Cc2cccc(F)c2)NC(=O)Cn2c(=O)[nH]c3ccccc32)ccc1F` [Example 326, (S)-2-fluoro-5-(2-(2-(3-fluorophenyl)-1-(2-(2-oxo-2,3-dihydro-1H-benzo[d]imidazol-1-yl)acetamido)ethyl)pyridin-3-yl)benzamide], in data set [1], the inhibition at 2 µM was found to be 27%. This compound came in with a CC50 at 5 days in data set [2] of more than 53200 nM.
Taken in the same sequence, the figures for `CCC(C(=O)N[C@@H](Cc1cc(F)cc(F)c1)c1ncccc1-c1ccc(F)c(C(N)=O)c1)n1ccc(C(F)(F)F)n1` (single isomer, unassigned) [Example 572B] were 11% and 36700 nM.
Turning to `O=C(Cc1c[nH]c2ccc(C(F)(F)F)cc12)N[C@@H](Cc1cc(F)cc(F)c1)c1ncccc1-c1ccc(Cl)cc1` [Example 513, (S)—N-(1-(3-(4-chlorophenyl)pyridin-2-yl)-2-(3,5-difluorophenyl)ethyl)-2-(5-(trifluoromethyl)-1H-indol-3-yl)acetamide], in data set [1], the inhibition at 2 µM stood at 63%. Moreover, the CC50 at 5 days in data set [2] is 10700 nM.
For the compound `O=C(Cc1c[nH]c2ccc(F)cc12)N[C@@H](Cc1cc(F)cc(F)c1)c1ncccc1-c1ccc(F)c(F)c1` [Example 406, (S)—N-(2-(3,5-difluorophenyl)-1-(3-(3,4-difluorophenyl)pyridin-2-yl)ethyl)-2-(5-fluoro-1H-indol-3-yl)acetamide], the inhibition at 2 µM in data set [1] amounted to 27%. The compound further returned a CC50 at 5 days in data set [2] of 11400 nM.
Regarding `O=C(Cc1c[nH]c2ccc(O)cc12)N[C@@H](Cc1cc(F)cc(F)c1)c1ncccc1-c1ccccc1` [Example 402, (S)—N-(2-(3,5-difluorophenyl)-1-(3-phenylpyridin-2-yl)ethyl)-2-(5-hydroxy-1H-indol-3-yl)acetamide], the inhibition at 2 µM in data set [1] came to 92%. The compound also yielded a CC50 at 5 days in data set [2] of 24800 nM.
Take `COc1ccc(-c2cccnc2[C@H](Cc2cccc(F)c2)NC(=O)Cn2nc(C(F)(F)F)c3c2CCCC3)cc1` [Example 29, (S)—N-(2-(3-fluorophenyl)-1-(3-(4-methoxyphenyl)pyridin-2-yl)ethyl)-2-(3-(trifluoromethyl)-4,5,6,7-tetrahydro-1H-indazol-1-yl)acetamide]: the inhibition at 2 µM in data set [1] was 36%. In data set [2], this compound gave a CC50 at 5 days of 13200 nM.
`NC(=O)c1cc(-c2cccnc2[C@H](Cc2cc(F)cc(F)c2)NC(=O)Cn2ccc3ccc(C(F)(F)F)cc32)ccc1F` [Example 591, (S)-5-(2-(2-(3,5-difluorophenyl)-1-(2-(6-(trifluoromethyl)-1H-indol-1-yl)acetamido)ethyl)pyridin-3-yl)-2-fluorobenzamide]: in data set [1], the inhibition at 2 µM was found to be 15%. Moreover, the midpoint of cytotoxicity in data set [2], the CC50 at 5 days, lay at 14200 nM.
For the compound `O=C(Cn1nc(C(F)(F)F)c2c1CCCC2)N[C@@H](Cc1cc(F)cc(F)c1)c1ncncc1-c1ccc(Cl)cc1` [Example 351, (S)—N-(1-(5-(4-chlorophenyl)pyrimidin-4-yl)-2-(3,5-difluorophenyl)ethyl)-2-(3-(trifluoromethyl)-4,5,6,7-tetrahydro-1H-indazol-1-yl)acetamide], the inhibition at 2 µM in data set [1] is 95%. In data set [2], this compound showed a cytotoxic concentration (CC50) at 5 days of 8600 nM.
Consider `NC(=O)c1cc(-c2cccnc2[C@H](Cc2cc(F)cc(F)c2)NC(=O)Cn2nc(C(F)F)c3c2C2CC(C2)C3=O)ccc1F` [Example 397, (S)-5-(2-(2-(3,5-difluorophenyl)-1-(2-(4,5,6,7-tetrahydro-3-difluoromethyl-4-oxo-5,7-(methano)indazol-1-yl)acetamido)ethyl)pyridin-3-yl)-2-fluorobenzamide], for which the inhibition at 2 µM in data set [1] worked out at 26%. Besides, in data set [2], the 50% cytotoxic concentration (CC50) at 5 days was more than 53200 nM.
Regarding `COC(=O)c1nn(CC(=O)N[C@@H](Cc2cc(F)cc(F)c2)c2ncccc2-c2ccc(F)c(C(N)=O)c2)c2c1COC2` [Example 452C, (S)-methyl 1-(2-((1-(3-(3-carbamoyl-4-fluorophenyl)pyridin-2-yl)-2-(3,5-difluorophenyl)ethyl)amino)-2-oxoethyl)-4,6-dihydro-1H-furo[3,4-c]pyrazole-3-carboxylate], the inhibition at 2 µM in data set [1] is 4%. Also, it took 9070 nM to reach half-maximal cytotoxicity in data set [2] (CC50 at 5 days).
